Results reported in patent publication US10450326B2, “Thiazolopyrimidinone compounds and preparation methods and use thereof” (PEKING UNIVERSITY, priority 2015, dated 2019).

Columns and labels:
α7 nAChR [1] = target: T1, α7 nAChR (Homo sapiens, UniProt P36544); test: α7 nAChR positive allosteric modulator activity assay, voltage clamp in Xenopus oocytes with 100 μM ACh; assay type: cell-based; settings: for activity at 10 µM: at 10 μM compound, current induced by 100 μM ACh, Xenopus oocytes expressing α7 nAChR, read-out: Max Mod (%, at 10 μM); for EC50: potentiation of current induced by 100 μM ACh, Hill equation fit
T1 construct: expressed in transfected cells; host or cells: Xenopus oocytes (cRNA injection)
T1 sequence (P36544 23-502): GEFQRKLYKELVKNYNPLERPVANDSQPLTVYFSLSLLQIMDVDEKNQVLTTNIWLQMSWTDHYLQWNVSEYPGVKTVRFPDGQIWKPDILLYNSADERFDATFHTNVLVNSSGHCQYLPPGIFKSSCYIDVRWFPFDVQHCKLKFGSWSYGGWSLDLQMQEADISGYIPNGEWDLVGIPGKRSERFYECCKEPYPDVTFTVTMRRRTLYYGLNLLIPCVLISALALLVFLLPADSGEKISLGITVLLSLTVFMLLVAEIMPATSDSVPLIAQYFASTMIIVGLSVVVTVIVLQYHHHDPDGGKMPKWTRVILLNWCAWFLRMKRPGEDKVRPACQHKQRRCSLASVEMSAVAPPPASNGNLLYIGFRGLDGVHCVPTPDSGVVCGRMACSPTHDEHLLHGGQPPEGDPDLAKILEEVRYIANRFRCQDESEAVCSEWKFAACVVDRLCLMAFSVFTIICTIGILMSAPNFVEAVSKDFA
Description: The experimental process was as follows:
(1) Xenopus oocytes were injected with cRNA encoding α7 nAChR in order to express α7 nAChR on the cell membrane successfully;
(2) 100 μM ACh alone was added, and the α7 nAChR characteristic current caused by it was recorded as a control;
(5) The oocytes were incubated for 1 min with 10 μM compound, then 10 µM compound and 100 μM ACh were added simultaneously and the current induced by ACh was recorded at this time;
(6) The differences between the two currents in terms of peak intensity and duration were compared, with the ratio of peak intensity of the two currents representing the adjustment effect (Enhance Rate), in order to determine whether the compound had PAM activity, if the activity was good, then the subsequent test was carried out;
(7) Concentration gradient was set and the effects of compounds at different concentrations on the α7 nAChR characteristic current induced by 100 μM ACh were evaluated. Several determinations were carried out at the same concentration, and the results were presented in the form of “mean±standard deviation”;
(8) The EC50 (median maximum effect concentration) values and Max mod (the current amplitude caused by the maximal degree of adjustable endogenous agonist acetylcholine) values of the compounds and other activity data were obtained by Hill equation Inormalized=Emax/(1+(EC50/C)nH).
The amplitude of the peak current is only normalized by the amplitude produced by 100 μM ACh and different concentrations of LD486. […] It can be seen from FIG. 3 that the Hill equation is used to fit the dose-response curve and calculate the kinetic parameters.

α7 nAChR [2] = target: T2, α7 nAChR (Rattus norvegicus, UniProt Q05941); test: Radioisotope ligand binding assay, displacement of [3H]-Methyllycaconitine bound to rat brain cell membrane; settings: displacement of [3H]-MLA, rat brain cell membrane, FIG. 1
T2 construct: from tissue; host or cells: rat brain (hippocampus) cell membranes
T2 sequence (Q05941 23-502): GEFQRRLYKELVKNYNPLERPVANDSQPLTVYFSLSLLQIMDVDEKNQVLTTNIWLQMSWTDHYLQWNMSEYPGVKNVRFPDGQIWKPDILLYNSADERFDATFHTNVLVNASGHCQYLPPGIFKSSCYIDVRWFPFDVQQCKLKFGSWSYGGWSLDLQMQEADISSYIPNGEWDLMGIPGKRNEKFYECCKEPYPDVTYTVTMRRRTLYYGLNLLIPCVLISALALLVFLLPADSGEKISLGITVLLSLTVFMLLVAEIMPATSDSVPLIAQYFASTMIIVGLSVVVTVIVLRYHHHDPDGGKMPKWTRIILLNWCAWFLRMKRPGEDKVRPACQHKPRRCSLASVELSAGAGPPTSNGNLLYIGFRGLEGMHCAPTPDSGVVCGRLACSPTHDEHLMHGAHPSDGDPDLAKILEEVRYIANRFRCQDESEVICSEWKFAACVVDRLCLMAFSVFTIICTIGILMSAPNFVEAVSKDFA

activity at 10 µM (α7 nAChR [1])	EC50 (α7 nAChR [1])	Compound	Ki (α7 nAChR [2])
110%	–	Cc1cc(C)c(-n2cnc3nc(Nc4ccccc4)sc3c2=O)c(C)c1 [LD252, 6-Mesityl-2-(phenylamino)thiazolo[4,5-d]pyrimidin-7(6H)-one]	–
110%	–	Cc1cc(C)c(-n2cnc3nc(Nc4ccccn4)sc3c2=O)c(C)c1 [LD286, 6-Mesityl-2-(pyridin-2-ylamino)thiazolo[4,5-d]pyrimidin-7(6H)-one]	–
110%	–	Cc1cc(C)c(-n2cnc3nc(Nc4ccncc4)sc3c2=O)c(C)c1 [LD293, 6-Mesityl-2-(pyridin-4-ylamino)thiazolo[4,5-d]pyrimidin-7(6H)-one]	–
110%	–	CSc1nc2ncn(-c3c(Cl)cccc3Cl)c(=O)c2s1 [LD493, 6-(2,6-Dichlorophenyl)-2-(methylthio) thiazolo[4,5-d]pyrimidin-7(6H)-one]	–
110%	–	CSc1nc2nnn(-c3c(Cl)cccc3Cl)c(=O)c2s1 [LD496, 3-(2,6-Dichlorophenyl)-6-(methylthio) thiazolo[4,5-d][1,2,3]triazin-4(3H)-one]	–
200%	10 µM	Cc1cccc(Cl)c1-n1cnc2nc(Sc3ccc(F)cc3)sc2c1=O [LYH150908, 6-(2-Chloro-6-methylphenyl)-2-((4-fluorophenyl)thio)thiazolo[4,5-d]pyrimidin-7(6H)-one]	–
110%	–	COc1ccc(Sc2nc3ncn(-c4c(C)cccc4Cl)c(=O)c3s2)cc1 [LYH150909, 6-(2-Chloro-6-methylphenyl)-2-((4-methoxyphenyl)thio)thiazolo[4,5-d]pyrimidin-7(6H)-one]	–
380%	10 µM	Cc1cccc(Cl)c1-n1cnc2nc(Sc3ccccc3)sc2c1=O [LYH151120, 6-(2-Chloro-6-methylphenyl)-2-(phenylthio)thiazolo[4,5-d]pyrimidin-7(6H)-one]	–
–	10 µM	Cc1cccc(Cl)c1-n1cnc2nc(Sc3cccc(F)c3)sc2c1=O [LYH151215, 6-(2-Chloro-6-methylphenyl)-2-((3-fluorophenyl)thio)thiazolo[4,5-d]pyrimidin-7(6H)-one]	–

Second part, the compound before the results:

Compound	activity at 10 µM (α7 nAChR [1])	EC50 (α7 nAChR [1])	Ki (α7 nAChR [2])
Cc1ccc(Nc2nc3ncn(-c4c(C)cccc4Br)c(=O)c3s2)cc1F [JWX-A-C0106, 6-(2-Bromo-6-methylphenyl)-2-((3-fluoro-4-methylphenyl)amino)thiazolo[4,5-d]pyrimidin-7(6H)-one]	200%	10 µM	–
Cc1ccc(Nc2nc3ncn(-c4c(C)cccc4F)c(=O)c3s2)cc1F [JWX-A-C0111, 6-(2-fluoro-6-methylphenyl)-2-((3-fluoro-4-methylphenyl)amino)thiazolo[4,5-d]pyrimidin-7(6H)-one]	110%	–	–
Cc1ccc(-n2cnc3nc(Nc4ccc(C)c(F)c4)sc3c2=O)c(Cl)c1 [JWX-A-C0229, 6-(2-Chloro-4-methylphenyl)-2-((3-fluoro-4-methylphenyl)amino)thiazolo[4,5-d]pyrimidin-7(6H)-one]	110%	–	–
Cc1ccc(Nc2nc3ncn(-c4ccccc4Cl)c(=O)c3s2)cc1F [JWX-A-C0831, 6-(2-Chlorophenyl)-2-((3-fluoro-4-methylphenyl)amino)thiazolo[4,5-d]pyrimidin-7(6H)-one]	380%	10 µM	–
Cc1cccc(Cl)c1-n1cnc2nc(Nc3ccc(OC(F)(F)F)cc3)sc2c1=O [JWX-A-C0901, 6-(2-Chloro-6-methylphenyl)-2-((4-(trifluoromethoxy)phenyl)amino)thiazolo[4,5-d]pyrimidin-7(6H)-one]	200%	10 µM	–
Cc1cccc(Cl)c1-n1cnc2nc(Nc3cccc(OC(F)(F)F)c3)sc2c1=O [JWX-A-C0907, 6-(2-Chloro-6-methylphenyl)-2-((3-(trifluoromethoxy)phenyl)amino)thiazolo[4,5-d]pyrimidin-7(6H)-one]	150%	10 µM	–
Cc1cccc(Cl)c1-n1cnc2nc(Nc3ccc(F)c(F)c3)sc2c1=O [JWX-A-C0915, 6-(2-Chloro-6-methylphenyl)-2-((3,4-difluorophenyl)amino)thiazolo[4,5-d]pyrimidin-7(6H)-one]	300%	10 µM	–
Cc1cc(C)cc(Nc2nc3ncn(-c4c(C)cccc4Cl)c(=O)c3s2)c1 [JWX-A-C1017, 6-(2-Chloro-6-methylphenyl)-2-((3,5-dimethylphenyl)amino)thiazolo[4,5-d]pyrimidin-7(6H)-one]	–	5.02 µM	–
Cc1cccc(Cl)c1-n1cnc2nc(NC(=O)c3ccc(Cl)cc3)sc2c1=O [JWX-A-C1020, N-(6-(2-Chloro-6-methylphenyl)-7-oxo-6,7-dihydrothiazolo[4,5-d]pyrimidin-2-yl)-4-chlorobenzamide]	350%	10 µM	–
Cc1ccc(Nc2nc3ncn(-c4ccccc4C)c(=O)c3s2)cc1F [JWX-A-C1026, 6-(o-tolyl)-2-((3-fluoro-4-methylphenyl)amino)-thiazolo[4,5-d]pyrimidin-7(6H)-one]	300%	10 µM	–
Cc1cccc(Cl)c1-n1cnc2nc(NC(=O)c3ccc(Br)cc3)sc2c1=O [JWX-A-C1122, N-(6-(2-chloro-6-methylphenyl)-7-oxo-6,7-dihydrothiazolo[4,5-d]pyrimidin-2-yl)-4-bromobenzamide]	1000%	9.8 µM	–
Cc1cccc(Cl)c1-n1cnc2nc(NC(=O)c3ccc(C(F)(F)F)cc3)sc2c1=O [JWX-A-C1128, N-(6-(2-Chloro-6-methylphenyl)-7-oxo-6,7-dihydrothiazolo[4,5-d]pyrimidin-2-yl)-4-(trifluoromethyl)benzamide]	200%	10 µM	–
Cc1cccc(Cl)c1-n1cnc2nc(NC(=O)c3ccc(OC(F)(F)F)cc3)sc2c1=O [JWX-A-C1205, N-(6-(2-Chloro-6-methylphenyl)-7-oxo-6,7-dihydrothiazolo[4,5-d]pyrimidin-2-yl)-4-(trifluoromethoxy)benzamide]	980%	10.8 µM	–
Cc1cccc(Cl)c1-n1cnc2nc(-c3ccccc3)sc2c1=O [JWX-C1200, 6-(2-Chloro-6-methylphenyl)-2-phenylthiazolo[4,5-d]pyrimidin-7(6H)-one]	110%	–	–
Cc1cccc(Cl)c1-n1cnc2nc(SCc3ccccc3F)sc2c1=O [LYH150309-2F, 6-(2-Chloro-6-methylphenyl)-2-((2-fluorobenzyl)thio)thiazolo[4,5-d]pyrimidin-7(6H)-one]	620%	4.18 µM	–
Cc1cccc(Cl)c1-n1cnc2nc(SCc3cccc(F)c3)sc2c1=O [LYH150310-3F, 6-(2-Chloro-6-methylphenyl)-2-((3-fluorobenzyl)thio)thiazolo[4,5-d]pyrimidin-7(6H)-one]	500%	10 µM	–
Cc1cccc(Cl)c1-n1cnc2nc(SCc3ccc(F)cc3)sc2c1=O [LYH150312-4F, 6-(2-Chloro-6-methylphenyl)-2-((4-fluorobenzyl)thio)thiazolo[4,5-d]pyrimidin-7(6H)-one]	670%	2.87 µM	–
Cc1ccc(CSc2nc3ncn(-c4c(C)cccc4Cl)c(=O)c3s2)cc1 [LYH150318-4Me, 6-(2-Chloro-6-methylphenyl)-2-((4-methylbenzyl)thio)thiazolo[4,5-d]pyrimidin-7(6H)-one]	300%	10 µM	–
Cc1cccc(CSc2nc3ncn(-c4c(C)cccc4Cl)c(=O)c3s2)c1 [LYH150324-3Me, 6-(2-Chloro-6-methylphenyl)-2-((3-methylbenzyl)thio)thiazolo[4,5-d]pyrimidin-7(6H)-one]	230%	10 µM	–
Cc1ccccc1CSc1nc2ncn(-c3c(C)cccc3Cl)c(=O)c2s1 [LYH150325-2Me, 6-(2-Chloro-6-methylphenyl)-2-((2-methylbenzyl)thio)thiazolo[4,5-d]pyrimidin-7(6H)-one]	370%	10 µM	–
COc1ccc(CSc2nc3ncn(-c4c(C)cccc4Cl)c(=O)c3s2)cc1 [LYH150326-4OCH3, 6-(2-Chloro-6-methylphenyl)-2-((4-methoxybenzyl)thio)thiazolo[4,5-d]pyrimidin-7(6H)-one]	300%	10 µM	–
Cc1cccc(Cl)c1-n1cnc2nc(SCc3ccc(C(F)(F)F)cc3)sc2c1=O [LYH150409-4CF3, 6-(2-Chloro-6-methylphenyl)-2-((4-(trifluoromethyl)benzyl)thio)thiazolo[4,5-d]pyrimidin-7(6H)-one]	140%	10 µM	–
O=C(N[C@H]1CN2CCC1CC2)c1ccc(Cl)cc1 [PNU-282987, reference compound]	–	–	0.0341 ± 0.0043 µM
